Results published in patent publication US20260234566A1, “CELL LINES FOR EXPRESSION OF LHCG RECEPTOR” (Ares Trading S.A., priority 2023, published 2026).
Several values for one entry are separate records, joined by “and”; a condition that tells them apart may be missing. Identical values can stand only once.

Assays:
adenylate cyclase (AC) [1] = experiment: Reporter Gene Assay with forskolin stimulation, HEK 293-T WT; format: cell-based, human; details: single wells
Experimental: (§1) Second transfection efficiency evaluation. In order to assess the second transfection efficiency, a Reporter Gene Assay (RGA) was performed. […] HEK 293-T LHCGR Luciferase cells were stimulated with forskolin. As described in literature, forskolin is a diterpene able to activate the adenylate cyclase (AC) allowing the increasing of intracellular cAMP in a wide variety of cell types. Exploiting forskolin ability, the RGA assay enables the evaluation of Reporter Gene Transcription in response to cAMP accumulation without involving the LHCG receptor. The luminescence emitted after Reporter Gene Transcription, was quantified using reagents available on the market. HEK 293-T LHCGR Luciferase and HEK 293-T without transfection were seeded in a 96 well plate and stimulated with different concentration of forskolin. After incubation, the ONE-Glo EX Luciferase assay system (Promega, E8120) was added in each well and, after 10 minutes shaking, results were acquired using the plate reader.

adenylate cyclase (AC) [2] = experiment: Reporter Gene Assay with forskolin stimulation, HEK 293-T LHCGR Luciferase; format: cell-based, human; details: single wells
Experimental: as §1, with “reader. Second transfection stability. HEK 293-T LHCGR Luciferase were stimulated with forskolin 4 μM or left unstimulated. Results were reported as a fold change of treated cells over unstimulated control. All % CVs were calculated among fold changes obtained for the three banks and resulted below 25%. The mean and the SD of the 3 banks were calculated and used to generate the graphs in FIG. 4B.” for “reader.”

Which results are given for C=C[C@@]1(C)CC(=O)[C@]2(O)[C@@]3(C)[C@@H](O)CCC(C)(C)[C@@H]3[C@H](O)[C@H](OC(C)=O)[C@@]2(C)O1 [Forskolin, forskolin]?
Luminescence values expressed as RLUs (adenylate cyclase (AC) [1]; forskolin 0.004 μM): 92 RLUs and 61 RLUs and 62 RLUs; Luminescence values expressed as RLUs (adenylate cyclase (AC) [1]; forskolin 0.04 μM): 124 RLUs and 88 RLUs and 68 RLUs; Luminescence values expressed as RLUs (adenylate cyclase (AC) [1]; forskolin 400 μM): 227 RLUs and 130 RLUs and 124 RLUs; Luminescence values expressed as RLUs (adenylate cyclase (AC) [2]; forskolin 0.004 μM): 4221 RLUs and 4333 RLUs and 3899 RLUs; Luminescence values expressed as RLUs (adenylate cyclase (AC) [2]; forskolin 0.04 μM): 7547 RLUs and 6804 RLUs and 7636 RLUs; Luminescence values expressed as RLUs (adenylate cyclase (AC) [2]; forskolin 0.4 μM): 65001 RLUs and 62733 RLUs and 72165 RLUs; Luminescence values expressed as RLUs (adenylate cyclase (AC) [2]; forskolin 4 μM): 310180 RLUs and 299010 RLUs and 303780 RLUs; Luminescence values expressed as RLUs (adenylate cyclase (AC) [2]; forskolin 40 μM): 374090 RLUs and 378740 RLUs and 387970 RLUs; Luminescence values expressed as RLUs (adenylate cyclase (AC) [2]; forskolin 400 μM): 205580 RLUs and 197090 RLUs and 195210 RLUs
